Results as given in PubChem BioAssay AID1963420 (Molecular Pharmacology Branch, DTP, NCI, 2024).

Test system: 494315-158-R-J1-PDC complex spheroid growth, percent test/control
Assay: Anticancer human tumor 494315-158-R-J1-PDC patient-derived soft tissue sarcoma cell line growth inhibition [Asc]
Details: for IC50: curve of first compound; for viability, T/C: stronger effect = lower value
Procedure: Multicellular complex tumor spheroid response to apoptosis pathway targeting inhibitors Alrizomadlin, Pelcitoclax, and Dasminapant in combination with a variety of drugs and investigational agents in selected tumor cell lines
The MDM2 inhibitor alrizomadlin, the Bcl-2/Bcl-xL inhibitor pelcitoclax, and the IAPs inhibitor dasminapant were evaluated both individually and in combination with standard of care and investigational anticancer small molecules within a complex spheroid model of solid tumors. . Complex spheroids include a stromal component modeled by human endothelial cells (HUVEC) and fibroblasts modeled by human mesenchymal stem cells (MSCs). The concentration ranges selected for each drug and investigational agent were based upon clinically achievable concentrations if the clinical Cmax of the agent was known.
Compounds. The drugs and investigational agents: alrizomadlin (APG-115; NSC831270), pelcitoclax (APG-1252; NSC835773), dasminapant (APG-1387;NSC834197), TAK-243 (NSC785004), copanlisib (NSC809693), olaparib (NSC753686), talazoparib (NSC767125), cobimetinib (NSC 768068), eltanexor (KPT-8602, NSC 794443), abemaciclib (NSC 768073), sotorasib (NSC818433), adagrasib (NSC 831453), MRTX-1133 (NSC 836407), Iadademestat (ORY1001, NSC 806812), and RMC-4630 (NSC839698), were obtained from the NCI Developmental Therapeutics Program Chemical Repository. The FDA-approved anticancer drug set is available from the Developmental Therapeutics Program at https://dtp.cancer.gov/organization/dscb/obtaining/available plates.htm. […] The stock solutions were prepared in dimethyl sulfoxide (DMSO, Sigma-Aldrich, St. Louis, MO, cat. D2650) at 800-fold the tested concentration and stored at -70 degrees C prior to their use. All drugs and investigational agents were tested over a range starting from a high concentration at or near the clinical Cmax and decreasing in half-log increments. If the clinical Cmax for an agent had not been determined, the highest concentration tested was 10 microM.
The patient-derived cancer (PDC) cell lines include five colon adenocarcinomas: 186277-243-T-J2-PDC, 616215-338-R-J1-PDC, 439559-082-T-J2-PDC, 463943-066-T-J2-PDC, and 519858-162-T-J1-PDC; three pancreatic carcinomas: 323965-272-R-J2-PDC, 521955-158-R6-J3-PDC, and 521955-158-R2-J5-PDC; two uterine sarcomas: 327498-152-R-J2-PDC and 993429-296-R-J1-PDC; two rhabdomyosarcomas: 755483-174-R-J1-PDC and 772245-204-R-J1-PDC; two soft tissue sarcomas: 126254-015-R-J1-PDC and 494315-158-R-J1-PDC; two malignant fibrous histiocytomas: 317291-083-R-J1-PDC and 596521-263-R-J1-PDC; two breast carcinomas: 171881-019-R-J1-PDC and 885512-296-R-J2-PDC; and one ovarian carcinoma: 6556581-035-R-J-PDC were obtained from the NCI PDMR, (https://pdmr.cancer.gov). The established cell lines HSSY-2 synovial sarcoma (RRID:CVCL 8719), SYO-1 synovial sarcoma (RRID:CVCL_7146), MPNST malignant peripheral neural sheath tumor were obtained from the Sloan Kettering Institute. The following established cell lines were purchased from the American Type Culture Collection (ATCC, Manassas, VA), Sor the received from the NCI repository:, PANC-1 pancreatic carcinoma (CRL-1469, RRID:CVCL_0480), OVCAR-5 ovarian carcinoma (RRID:CVCL_1628), OVCAR-8 ovarian carcinoma (RRID:CVCL_1629), , MCF-7 breast carcinoma (CRL-12584, RRID:CVCL_0031), MDA-MB-231 breast carcinoma (CRL-12532, RRID:CVCL_0062), NCI-H1876 small cell lung carcinoma (CRL-5902, RRID:CVCL_1503), NCI-H510A small cell lung carcinoma (HTB-184, RRID:CVCL_1565), NCI-H1417 (CRL-5869, RRID:CVCL_1469), and NCI-H196 small cell lung carcinoma (CRL-5823, RRID:CVCL_1509). Dr. Peter Houghton (Greehey Children's Cancer Research Institute, University of Texas Health Science Center, San Antonio, TX) provided Rh-18 rhabdomyosarcoma (RRID:CVCL_1659). Pooled donor human umbilical vein endothelial cells (HUVEC, Lonza, cat. CC-2519) and human mesenchymal stem cells (hMSC, Lonza, cat. PT-2501) were purchased from Lonza (Walkersville, MD).
Cell Culture. […]
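Further: compound exposure lasted seven days after spheroids formed for three days.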

CCN1CCN(Cc2ccc(Nc3ncc(F)c(-c4cc(F)c5nc(C)n(C(C)C)c5c4)n3)nc2)CC1 + CCN1C(C(=O)NC23CCC(C(=O)O)(CC2)CC3)C(c2cccc(Cl)c2F)C2(C(=O)Nc3cc(Cl)ccc32)C12CCCCC2
IC50 (second compound 0.03 µM): > 1000 nM
IC50 (second compound 0.0949 µM): > 1000 nM
IC50 (second compound 0.3 µM): > 1000 nM
IC50 (second compound 0.949 µM): > 1000 nM
IC50 (second compound 3 µM): > 1000 nM
viability, T/C (second compound 0.03 µM, first compound 0.00316 µM): 109%
viability, T/C (second compound 0.03 µM, first compound 0.01 µM): 108%
viability, T/C (second compound 0.03 µM, first compound 0.0316 µM): 94.2%
viability, T/C (second compound 0.03 µM, first compound 0.1 µM): 112%
viability, T/C (second compound 0.03 µM, first compound 0.316 µM): 105%
viability, T/C (second compound 0.03 µM, first compound 1 µM): 97.2%
viability, T/C (second compound 0.0949 µM, first compound 0.00316 µM): 105%
viability, T/C (second compound 0.0949 µM, first compound 0.01 µM): 112%
viability, T/C (second compound 0.0949 µM, first compound 0.0316 µM): 121%
viability, T/C (second compound 0.0949 µM, first compound 0.1 µM): 121%
viability, T/C (second compound 0.0949 µM, first compound 0.316 µM): 106%
viability, T/C (second compound 0.0949 µM, first compound 1 µM): 103%
viability, T/C (second compound 0.3 µM, first compound 0.00316 µM): 107%
viability, T/C (second compound 0.3 µM, first compound 0.01 µM): 104%
viability, T/C (second compound 0.3 µM, first compound 0.0316 µM): 114%
viability, T/C (second compound 0.3 µM, first compound 0.1 µM): 106%
viability, T/C (second compound 0.3 µM, first compound 0.316 µM): 112%
viability, T/C (second compound 0.3 µM, first compound 1 µM): 97.2%
viability, T/C (second compound 0.949 µM, first compound 0.00316 µM): 111%
viability, T/C (second compound 0.949 µM, first compound 0.01 µM): 117%
viability, T/C (second compound 0.949 µM, first compound 0.0316 µM): 100%
viability, T/C (second compound 0.949 µM, first compound 0.1 µM): 99.2%
viability, T/C (second compound 0.949 µM, first compound 0.316 µM): 97.1%
viability, T/C (second compound 0.949 µM, first compound 1 µM): 88.3%
viability, T/C (second compound 3 µM, first compound 0.00316 µM): 110%
viability, T/C (second compound 3 µM, first compound 0.01 µM): 112%
viability, T/C (second compound 3 µM, first compound 0.0316 µM): 89.1%
viability, T/C (second compound 3 µM, first compound 0.1 µM): 114%
viability, T/C (second compound 3 µM, first compound 0.316 µM): 100%
viability, T/C (second compound 3 µM, first compound 1 µM): 85%

NC1CCC(NC2CC2c2ccccc2)CC1 (stereo not given) + CNC(C)C(=O)NC1CN(S(=O)(=O)c2cccc(S(=O)(=O)N3CCC4CCC(C(=O)NC(c5ccccc5)c5ccccc5)N4C(=O)C(NC(=O)C(C)NC)C3)c2)CCC2CCC(C(=O)NC(c3ccccc3)c3ccccc3)N2C1=O
IC50 (second compound 0.01 µM): > 100 nM
IC50 (second compound 0.0316 µM): > 100 nM
IC50 (second compound 0.1 µM): > 100 nM
IC50 (second compound 0.316 µM): < 0.316 nM
IC50 (second compound 1 µM): < 0.316 nM
viability, T/C (second compound 0.01 µM, first compound 0.000316 µM): 72.2%
viability, T/C (second compound 0.01 µM, first compound 0.001 µM): 70.7%
viability, T/C (second compound 0.01 µM, first compound 0.00316 µM): 71.7%
viability, T/C (second compound 0.01 µM, first compound 0.01 µM): 77.2%
viability, T/C (second compound 0.01 µM, first compound 0.0316 µM): 77.4%
viability, T/C (second compound 0.01 µM, first compound 0.1 µM): 66.1%
viability, T/C (second compound 0.0316 µM, first compound 0.000316 µM): 65.7%
viability, T/C (second compound 0.0316 µM, first compound 0.001 µM): 67.8%
viability, T/C (second compound 0.0316 µM, first compound 0.00316 µM): 55.7%
viability, T/C (second compound 0.0316 µM, first compound 0.01 µM): 70.6%
viability, T/C (second compound 0.0316 µM, first compound 0.0316 µM): 62.3%
viability, T/C (second compound 0.0316 µM, first compound 0.1 µM): 57.3%
viability, T/C (second compound 0.1 µM, first compound 0.000316 µM): 53.5%
viability, T/C (second compound 0.1 µM, first compound 0.001 µM): 60.9%
viability, T/C (second compound 0.1 µM, first compound 0.00316 µM): 47.3%
viability, T/C (second compound 0.1 µM, first compound 0.01 µM): 55.5%
viability, T/C (second compound 0.1 µM, first compound 0.0316 µM): 52.4%
viability, T/C (second compound 0.1 µM, first compound 0.1 µM): 64.5%
viability, T/C (second compound 0.316 µM, first compound 0.000316 µM): 45.6%
viability, T/C (second compound 0.316 µM, first compound 0.001 µM): 48.3%
viability, T/C (second compound 0.316 µM, first compound 0.00316 µM): 42.1%
viability, T/C (second compound 0.316 µM, first compound 0.01 µM): 43.9%
viability, T/C (second compound 0.316 µM, first compound 0.0316 µM): 43.7%
viability, T/C (second compound 0.316 µM, first compound 0.1 µM): 44.7%
viability, T/C (second compound 1 µM, first compound 0.000316 µM): 38.8%
viability, T/C (second compound 1 µM, first compound 0.001 µM): 41.9%
viability, T/C (second compound 1 µM, first compound 0.00316 µM): 42.9%
viability, T/C (second compound 1 µM, first compound 0.01 µM): 40.2%
viability, T/C (second compound 1 µM, first compound 0.0316 µM): 35.7%
viability, T/C (second compound 1 µM, first compound 0.1 µM): 46.9%
